A short description of this series: Solubility of the organic compound in nonpolar / polar solvent (added to 1.0 mL solvent to saturation point). Format: physicochemical. From the text: The raw material(s) is not particularly limited as long as the raw material(s) contains the organic compound, and the raw materials may contain the organic compound and an additive. The additive is not particularly limited as long as an object of a present inventive subject matter is not interfered with, and may be a known additive. The mixing ratio of the additive in the raw materials is not particularly limited, however, preferably in a range of 0.00001 mol % to 30 mol %, and further preferably in a range of 0.0001 mol % to 10 mol %. […] According to a present inventive subject matter, the organic compound is added into the polar solvent that is 1.0 mL to saturation point, and the remaining organic compound in the polar solvent was measured by deducting the remaining amount of organic compound in the polar solvent from the total amount of added organic compound in the polar solvent. […] According to a present inventive subject matter, the organic compound is added into the nonpolar solvent that is 1.0 mL to saturation point, and the remaining organic compound in the nonpolar solvent was measured by deducting the remaining amount of organic compound in the nonpolar solvent from the total amount of added organic compound in the nonpolar solvent. […]

SMILES strings stand for the structures. Values after ≈ are worked out from the molar mass of the structure shown.

Consider `c12c3c4c5c1c1c6c7c2c2c8c3c3c9c4c4c%10c5c5c1c1c6c6c%11c7c2c2c7c8c3c3c8c9c4c4c9c%10c5c5c1c1c6c6c%11c2c2c7c3c3c8c4c4c9c5c1c1c6c2c3c41` [C60 fullerene], for which the “dissolution into the solvent” value (Comparative Example 4, only 2-Pyrrolidone used as the solvent of the raw-material solution) was “hardly dissolved”. This molecule also registered a solubility to mesitylene (nonpolar solvent mesitylene, temperature of 25° C.) of 1500 µg/mL (≈ 2080 µM).

Values taken from patent US20200332133A1, “SOLVENT AND METHOD OF FORMING ORGANIC FILM USING SOLVENT” (FLOSFIA INC., priority 2017, published 2020).
